Laboratory results from publication PMC12015663 (Cancer Research Communications, 2025).
Read-outs that look alike come from different tables or passages of the source.

Key:
[1] = test system: pERK in NCI-H1838 (NF1-LOF); test: pERK modulation in vitro, MSD ELISA, NCI-H1838; conditions: for extent of the pERK increase: NCI-H1838, compared across type II RAF inhibitors; for EC50: read-out: pERK EC50
Protocol: (§1) MSD ELISA experiments were conducted by WuXi AppTec on whole cell lysates and generated using the Phospho/Total ERK1/2 Assay Whole Cell Lysate Kit (MSD, cat. no. K15107D) according to the manufacturer’s protocol.
(§2) In vitro modulation of pERK levels was assessed in NF1-LOF and BRAF V600E tumor cell lines by MSD ELISA.
(§3) pERK levels were assessed 1 hour after treatment with each of the test compounds or control. Preparation of 96-well plates for MSD ELISA was performed according to the manufacturer’s instructions using the Phospho/Total ERK1/2 Assay Whole Cell Lysate Kit (MSD, cat no. K15107D). The plates were read using the MSD reader (MESO QuickPlex SQ120, cat. no. SQ120, RRID: SCR_020304). The A375 BRAF V600E tumor cell line served as a positive control.
(§4) The percent phosphoprotein in a sample was calculated using MSD phospho-/total multiplex phosphoprotein assays, as well as the following formula: anti-total and anti-phospho assay in the same well: % phosphoprotein = [(2 × phospho signal)/(phospho signal + total signal)] × 100. The ratio of pERK to total ERK was normalized to the ratio of the DMSO control group. EC50 pERK values and concentration response curves were generated using GraphPad Prism software analysis (RRID: SCR_002798).

[2] = test system: pERK in A375 (BRAF V600E); test: pERK modulation in vitro, MSD ELISA, A375; format: cell-based; conditions: A375, BRAF V600E, melanoma, 1 hour after treatment, n = 2, read-out: pERK EC50
Protocol: as §1, §2, §3, §4

ARAF = target: T1, ARAF (Homo sapiens, UniProt P10398); test: Time-resolved fluorescence energy transfer binding assay (KINETICfinder); conditions: partial length active recombinant human ARAF at 5 nmol/L; 60 minutes, room temperature; singlicate
T1 sequence (P10398 310-570 limits assumed): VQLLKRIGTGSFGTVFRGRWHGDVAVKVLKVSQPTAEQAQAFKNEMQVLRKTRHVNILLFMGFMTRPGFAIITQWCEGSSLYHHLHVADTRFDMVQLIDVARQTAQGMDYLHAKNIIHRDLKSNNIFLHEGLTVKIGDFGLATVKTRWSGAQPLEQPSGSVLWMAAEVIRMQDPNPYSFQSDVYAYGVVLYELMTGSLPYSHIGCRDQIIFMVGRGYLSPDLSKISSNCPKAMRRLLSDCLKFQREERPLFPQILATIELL
Protocol: Compounds were mixed with assay buffer (50 mmol/L HEPES pH 7.5, 1 mmol/L Ethyleneglycol-bis-(aminoethyl-ether)-N,N,N',N'-tetraacetic acid, 0.01% Brij-35, 10 mmol/L MgCl2, and 2 mmol/L Dithiothreitol), and 5 μL of this solution was transferred to the assay plate. The final concentration of DMSO in the assay was 1%. Hundred percent DMSO was used as a high and low control. Assays were run in singlicate with a reference compound included in each assay to evaluate reproducibility and assay quality.
Wells containing the fluorescent probe, antibody, and target (ARAF) were used as the high reaction control (total binding) and wells containing the probe and antibody were used as the low reaction control (nonspecific binding). […] Next, the substrate antibody solution was added, and the reaction was incubated for 60 minutes at room temperature. Percentage inhibition of each well was calculated using the following formula: % inhibition = 100 − [compound emission ratio (ER) − low control ER/high control ER − low control ER] × 100. Results were fitted to a concentration response curve with a variable slope and constraints of 0 and 100 for bottom and top, respectively, to generate the IC50 values.

BRAF wt = test system: BRAF wt; parameters: method as in earlier work; conditions: full length human construct; 0.125 nmol/L GST-tagged BRAF wild type, 12.5 nmol/L biotinylated MEK, ATP 50 μmol/L; 41 (TAK-632: ref 26-28); cited from earlier work
CRAF wt = test system: CRAF wt; parameters: method as in earlier work; conditions: full length human construct; GST-tagged CRAF wild type, 50 nmol/L biotinylated MEK, ATP 10 μmol/L; 41 (TAK-632: ref 26-28); cited from earlier work
MeWo = test: CellTiter-Glo cell viability assay, MeWo
Protocol: (§5) Next, 2 μL of each concentration was added to 198 μL assay medium (PBS) to create a 10× stock. […] MSD ELISA experiments were conducted by WuXi AppTec on whole cell lysates and generated using the Phospho/Total ERK1/2 Assay Whole Cell Lysate Kit (MSD, cat. no. K15107D) according to the manufacturer’s protocol.
(§6) The in vitro anti-proliferation effect of each of the test compounds was assessed in NF1-LOF and BRAF V600E tumor cell lines cultured as a monolayer using the CellTiter-Glo (CTG) cell viability assay. Cell culture experiments were performed with duplicate wells. Cell concentrations were adjusted for cell density (seeding density of 5,000 for sNF96.2 and MeWo; 6,000 for NCI-H1838; and 2,500 for A375) prior to plating onto a 96-well assay plate and incubated overnight at 37°C with 5% CO2, 95% air, and 100% relative humidity.
(§7) Anti-proliferative activity was assessed after 72 hours of treatment with the test compound or control. […] DMSO was also applied as a control on days 2 and 3. The final DMSO concentration for all test compounds and vehicle control was 0.1%. The A375 BRAF V600E tumor cell line served as a positive control. Preparation of 96-well plates for CTG assays was performed according to the manufacturer’s instructions using the CTG Luminescent Cell Viability Assay Kit (Promega, RRID: SCR_006724, cat. no. G7573). Luminescence was measured on day 3 using the 2104 EnVision Multilabel Reader (PerkinElmer).
(§8) The inhibition rate of the tested compounds was determined using the following formula: inhibition rate (%) = (1 − [relative luminescence unit (RLU) compound − RLU blank])/(RLU control − RLU blank) × 100. EC50 proliferation values were generated using GraphPad Prism software analysis.

A375 = test: CellTiter-Glo cell viability assay, A375; conditions: read-out: Proliferation EC50
Protocol: as §5, §6
(§9) Anti-proliferative activity was assessed after 72 hours of treatment with the test compound or control. […] DMSO was also applied as a control on days 2 and 3. The final DMSO concentration for all test compounds and vehicle control was 0.1%. […] Luminescence was measured on day 3 using the 2104 EnVision Multilabel Reader (PerkinElmer).
(§10) The inhibition rate of the tested compounds was determined using the following formula: inhibition rate (%) = (1 − [relative luminescence unit (RLU) compound − RLU blank])/(RLU control − RLU blank) × 100. […]

pERK in MeWo (NF1-LOF) = test: pERK modulation in vitro, MSD ELISA, MeWo
Protocol: as §1, §2, §3, §4

sNF96.2 = test: CellTiter-Glo cell viability assay, sNF96.2; conditions: read-out: Proliferation EC50
Protocol: as §5, §6, §7, §8

[3] = test system: pERK in sNF96.2 (NF1-LOF); test: pERK modulation in vitro, MSD ELISA, sNF96.2; conditions: read-out: pERK EC50
Protocol: as §1, §2, §3, §4

NCI-H1838 = test: CellTiter-Glo cell viability assay, NCI-H1838; conditions: read-out: Proliferation EC50
Protocol: as §5, §6, §7, §8

NF1-LOF tumor cell lines = test: CellTiter-Glo cell viability assay, statement on all three NF1-LOF tumor cell lines; conditions: CTG 72 hours
Protocol: as §5, §6, §9, §10

O=C1CCc2c(Oc3ccc4c(c3)[C@@H]3[C@H](O4)[C@H]3c3nc4ccc(C(F)(F)F)cc4[nH]3)ccnc2N1 [BGB-283]
extent of the pERK increase ([1]; 1 hour after treatment): higher extent

Cc1ccc2c(Nc3cccc(Cl)c3F)nccc2c1NC(=O)c1csc2c(N)ncnc12 [Belvarafenib]
extent of the pERK increase ([1]; 1 hour after treatment): lesser extent

Cc1ccc(NC(=O)c2ccnc(C(F)(F)F)c2)cc1-c1cc(OCCO)nc(N2CCOCC2)c1 [LXH254]
extent of the pERK increase ([1]; 1 hour after treatment): lesser extent

N#Cc1c(Oc2ccc(F)c(NC(=O)Cc3cccc(C(F)(F)F)c3)c2)ccc2nc(NC(=O)C3CC3)sc12 [TAK-632]
EC50 [2]: 30 nM
IC50 (ARAF): 215 nM
IC50 (BRAF wt): 8.3 nM
IC50 (CRAF wt): 1.4 nM
EC50 (MeWo; read-out: Proliferation EC50, CTG 72 hours after treatment, repeated application of tovorafenib): 4100 nM
EC50 (A375; A375, CTG 72 hours after treatment, repeated application of tovorafenib): 70 nM
EC50 (pERK in MeWo (NF1-LOF); read-out: pERK EC50, NF1-LOF, melanoma, 1 hour after treatment, n = 2): 1600 nM
EC50 (sNF96.2; sNF96.2, CTG 72 hours after treatment, repeated application of tovorafenib): 2400 nM
EC50 ([3]; sNF96.2, NF1-LOF, MPNST, 1 hour after treatment, n = 2): 750 nM
EC50 (NCI-H1838; NCI-H1838, CTG 72 hours after treatment, n = 1, repeated application of tovorafenib): 3300 nM
extent of the pERK increase ([1]; 1 hour after treatment): lesser extent
EC50 ([1]; NCI-H1838, NF1-LOF, lung, 1 hour after treatment, n = 1): 1250 nM

CCCS(=O)(=O)Nc1ccc(F)c(C(=O)c2c[nH]c3ncc(-c4ccc(Cl)cc4)cc23)c1F [Vemurafenib]
EC50 ([2]; Homo sapiens, A-375): 20 nM
EC50 (MeWo; Homo sapiens, 72 h, read-out: Proliferation EC50): 4500 nM
EC50 (A375; Homo sapiens, A-375, 72 h): 90 nM
EC50 (pERK in MeWo (NF1-LOF); Homo sapiens, 1 h, read-out: pERK EC50): > 10000 nM
EC50 (sNF96.2; SNF96.2, 72 h): 6000 nM
EC50 ([3]; SNF96.2, 1 h): > 10000 nM
EC50 (NCI-H1838; Homo sapiens, NCI-H1838, 72 h): > 10000 nM
EC50 ([1]; Homo sapiens, NCI-H1838, 1 h): > 10000 nM
sensitivity of cell lines (NF1-LOF tumor cell lines): insensitive
